Assay results reported in US20040024024A1, “Aromatic sulfone hydroxamates and their use as protease inhibitors” (priority 2001, published 2004).

Experiments:
Assay in all cases: In vitro MMP inhibition, IC50 determination (fluorogenic substrate I)
Type in all cases: biochemical
Human recombinant MMP-1 = molecular target: T1, Human recombinant MMP-1 (Homo sapiens, UniProt P03956)
T1 construct: made in house; host or cells: MMP-1-transfected HT-1080 cells (spent media)
T1 sequence (P03956 100-469): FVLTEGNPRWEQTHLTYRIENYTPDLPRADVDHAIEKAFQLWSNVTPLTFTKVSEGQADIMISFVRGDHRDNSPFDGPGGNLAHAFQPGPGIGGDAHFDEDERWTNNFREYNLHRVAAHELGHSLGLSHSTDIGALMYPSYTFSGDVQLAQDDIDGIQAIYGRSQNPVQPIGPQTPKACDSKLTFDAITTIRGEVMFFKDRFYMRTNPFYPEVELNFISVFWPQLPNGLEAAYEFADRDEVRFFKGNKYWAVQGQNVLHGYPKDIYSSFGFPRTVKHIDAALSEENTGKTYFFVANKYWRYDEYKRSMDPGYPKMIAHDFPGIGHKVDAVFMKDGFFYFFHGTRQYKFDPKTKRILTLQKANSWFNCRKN
Protocol: (§1) Several hydroxamates and salts thereof were analyzed in in vitro assays to determine their ability to inhibit the MMP cleavage of peptide substrates. Inhibition (Ki) and IC50 constants were calculated from the assayed hydroxamate-MMP interactions.
(§2) Human recombinant MMP-1, MMP-2, MMP-9, MMP-13, and MMP-14 were used in this assay. All enzymes were prepared in Assignee's laboratories following usual laboratory procedures. Protocols for the preparation and use of these enzymes are available in the scientific literature. See, e.g., Enzyme Nomenclature (Academic Press, San Diego, Calif., 1992) (and the citations therein). See also, Frije et al., J. Biol. Chem., 26(24), 16766-73 (1994).
The MMP-1 proenzyme was purified from the spent media of MMP-1-transfected HT-1080 cells provided by Dr. Harold Welgus of Washington University (St. Louis, Mo.). The protein was purified on a zinc chelating column.
(§3) All MMPs were activated using 4-aminophenylmercuric acetate (“APMA”, Sigma Chemical, St. Louis, Mo.) or trypsin. MMP-9 also was activated using human recombinant MMP-3 (purified in Assignee's laboratory following standard cloning and purification techniques).
(§4) Two fluorogenic, methoxycoumarin-containing polypeptide substrates were used in the MMP inhibition assays:
(§5) MCA-ProLeuGlyLeuDpaAlaArgNH2 (I)
(§6) Here, “Dpa” is 3-(2,4-dinitrophenyl)-L-2,3-diaminopropionyl group, and “MCA” is 7-methoxycoumarin-4-yl acetyl. Substrate (I) was purchased from Baychem (Redwood City, Calif.), and substrate II was prepared Assignee's laboratory. Substrate I was used in the IC50 determination assays, while substrate II was used in the Ki determination assays. In the absence of MMP inhibitory activity, either substrate is cleaved at the Gly-Leu peptide bond. This cleavage separates the highly fluorogenic peptide from the 2,4-dinitrophenyl quencher, thus resulting in increase of fluorescent intensity.
(§7) The stock solutions of the assayed hydroxamates (or salts thereof) were prepared in 1% dimethyl sulfoxide (DMSO). These stock solutions were diluted in Buffer A (100 mM Tris-HCl, 100 mM NaCl, 10 mM CaCl2, 0.05% polyoxyethylene 23 lauryl ether, pH 7.5) to obtain solutions with different hydroxamate concentrations, i.e., assay solutions with different concentrations of the assayed MMP inhibitory compound. The experiment controls contained the same amount of Buffer A/DMSO as the assayed sample, but contained no hydroxamate (or salt thereof).
(§8) The assays from which the IC50 determinations were made were performed as follows. The MMPs were activated with either trypsin or APMA (4-aminophenylmercuric acetate, Sigma Chemical, St. Louis, Mo.). The assayed hydroxamate samples were, incubated in Microfluorrm White Plates (Dynatech, Chantilly, VA) and analyzed on a Perkin Elmer L550 plate reader (Norwalk, Conn.). The excitation wavelength was 328 nm, and the emission wavelength—415 nm. All samples (assayed hydroxamates and controls) were incubated in separate plates at room temperature in the presence of 4 μM of MMP substrate (I). As stated in the previous paragraph, samples containing varying concentrations of the same assayed hydroxamate were prepared. Inhibition was measured as a reduction in fluorescent intensity as a function of MMP inhibitor concentration.

Human recombinant MMP-9 = molecular target: T2, Human recombinant MMP-9 (Homo sapiens, UniProt P14780)
T2 construct: made in house; host or cells: MMP-9-transfected HT1080 cells (spent media)
T2 sequence (P14780 107-707 limits assumed): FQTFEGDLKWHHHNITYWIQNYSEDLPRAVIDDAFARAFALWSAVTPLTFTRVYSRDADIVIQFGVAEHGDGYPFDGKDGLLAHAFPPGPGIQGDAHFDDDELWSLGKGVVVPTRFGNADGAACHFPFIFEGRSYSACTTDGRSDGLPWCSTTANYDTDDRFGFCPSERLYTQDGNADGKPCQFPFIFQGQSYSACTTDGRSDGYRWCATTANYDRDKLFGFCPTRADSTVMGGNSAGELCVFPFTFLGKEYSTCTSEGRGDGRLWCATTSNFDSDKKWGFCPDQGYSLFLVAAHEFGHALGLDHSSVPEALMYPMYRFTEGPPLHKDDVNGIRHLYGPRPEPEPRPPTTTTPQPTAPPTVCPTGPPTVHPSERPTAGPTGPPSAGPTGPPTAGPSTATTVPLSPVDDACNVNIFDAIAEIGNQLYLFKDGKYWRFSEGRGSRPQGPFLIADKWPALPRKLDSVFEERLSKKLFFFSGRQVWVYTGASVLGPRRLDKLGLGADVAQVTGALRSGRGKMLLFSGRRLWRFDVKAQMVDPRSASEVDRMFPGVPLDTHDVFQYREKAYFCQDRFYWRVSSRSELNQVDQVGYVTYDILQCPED
Protocol: as §1, §2
The MMP-9 proenzyme was purified by gelatin Sepharose chromatography from spent media of MMP-9-transfected HT1080 cells provided by Dr. Howard Welgus of Washington University (St. Louis, Mo.).
as §3, §4, §5, §6, §7, §8

Human recombinant MMP-13 = molecular target: T3, Human recombinant MMP-13 (Homo sapiens, UniProt P45452)
T3 construct: made in house; host or cells: baculovirus / insect cells
How it was run: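 Fluorescence at 415 nm (excitation 328 nm) reports Gly-Leu cleavage of 4 μM quenched methoxycoumarin peptide substrate I. Human recombinant MMP-13, activated by trypsin or APMA, was incubated at room temperature with varied inhibitor concentrations in pH 7.5 Tris/NaCl/CaCl2 buffer; IC50 derived from reduced fluorescence.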

Human recombinant MMP-14 = molecular target: T4, Human recombinant MMP-14 (Homo sapiens, UniProt P50281)
T4 construct: The catalytic domain enzyme was expressed in E. coli inclusion bodies, solubilized in urea; made in house
Protocol: as §1, §2
The MMP-14 full length cDNA was provided by Dr. Gregory Goldberg of Washington University (St. Louis, Mo.). The catalytic domain enzyme was expressed in E. coli inclusion bodies, solubilized in urea, purified on a preparative […] reverse phase HPLC column, and then refolded in the presence of zinc acetate and purified for use.
as §3, §4, §5, §6, §7, §8

Human recombinant MMP-2 = molecular target: T5, Human recombinant MMP-2 (Homo sapiens, UniProt P08253)
T5 construct: made in house; host or cells: MMP-2-transfected p2AHT2 cells
T5 sequence (P08253 110-660): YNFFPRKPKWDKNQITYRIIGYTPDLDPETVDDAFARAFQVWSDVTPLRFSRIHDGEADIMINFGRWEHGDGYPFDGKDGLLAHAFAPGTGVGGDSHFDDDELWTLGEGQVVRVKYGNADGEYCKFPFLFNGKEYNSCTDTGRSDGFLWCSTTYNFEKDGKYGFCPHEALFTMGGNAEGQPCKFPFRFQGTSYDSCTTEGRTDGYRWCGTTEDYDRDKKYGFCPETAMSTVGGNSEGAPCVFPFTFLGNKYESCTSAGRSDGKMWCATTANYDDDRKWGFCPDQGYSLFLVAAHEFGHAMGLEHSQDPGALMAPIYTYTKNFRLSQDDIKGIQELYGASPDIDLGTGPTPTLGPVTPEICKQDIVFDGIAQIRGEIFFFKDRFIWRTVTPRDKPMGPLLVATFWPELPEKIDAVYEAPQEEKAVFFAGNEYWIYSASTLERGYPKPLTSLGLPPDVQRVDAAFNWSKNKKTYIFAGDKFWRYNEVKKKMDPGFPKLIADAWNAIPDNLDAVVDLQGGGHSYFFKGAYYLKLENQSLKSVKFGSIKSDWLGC
How it was run: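 IC50 was derived from the concentration-dependent fall in fluorescence (ex 328, em 415 nm) on Gly-Leu cleavage of 4 μM MCA/Dpa-quenched substrate I. Assays ran at room temperature in pH 7.5 Tris/NaCl/CaCl2/Brij buffer with MMP-2 activated by trypsin or APMA; inhibitors were diluted from 1% DMSO stocks.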

[1] = value outside parentheses (Ki in parenthesis)

| IC50 (Human recombinant MMP-2; [1]) | IC50 (Human recombinant MMP-13; [1]) | IC50 (Human recombinant MMP-1; [1]) | Structure (SMILES) | further results |
| --- | --- | --- | --- | --- |
| – | – | – | O=C1CN(c2ccccc2)C(=O)N1CCCOc1ccc(S(=O)(=O)C2(C(=O)NO)CCOCC2)cc1 [Example 174] | IC50 (Human recombinant MMP-1; value outside parenthesis): > 10 µM; IC50 (Human recombinant MMP-9; value outside parenthesis): 4.02 µM; IC50 (Human recombinant MMP-13; value outside parenthesis): 5.2 nM; IC50 (Human recombinant MMP-14; value outside parenthesis): > 10 µM |
| – | – | – | O=C1CN(c2ccccc2)C(=O)N1CCCOc1ccc(S(=O)(=O)C2(C(=O)NO)CCOCC2)cc1 [Example 263] | IC50 (Human recombinant MMP-9; value outside parenthesis): 3.27 µM; IC50 (Human recombinant MMP-13; value outside parenthesis): 3.8 nM |
| – | – | – | CN(C)c1ccc(C(=O)CCCCOc2ccc(S(=O)(=O)C3(C(=O)NO)CCN(C4CC4)CC3)cc2)cc1 [Example 267] | IC50 (Human recombinant MMP-2; value outside parenthesis): 18.5 nM; IC50 (Human recombinant MMP-1; value outside parenthesis): > 10 µM; IC50 (Human recombinant MMP-9; value outside parenthesis): 0.107 µM; IC50 (Human recombinant MMP-14; value outside parenthesis): > 10 µM |
| 6.5 nM | 0.5 nM | – | COc1ccc(SCCCCOc2ccc(S(=O)(=O)C3(C(=O)NO)CCOCC3)cc2)cc1 [Example 429] | IC50 (Human recombinant MMP-9; [1]): > 10 µM; IC50 (Human recombinant MMP-14; [1]): > 10 µM |
| > 10000 nM | 500 nM | > 10 µM | CC(C)(COc1ccc(S(=O)(=O)C2(C(=O)NO)CCOCC2)cc1)CSc1ccc(OC(F)(F)F)cc1 [Example 435] | – |
| 1500 nM | 100 nM | > 10 µM | COc1cccc(SCC(C)(C)COc2ccc(S(=O)(=O)C3(C(=O)NO)CCOCC3)cc2)c1 [Example 436] | – |
| 165 nM | 27 nM | > 10 µM | O=C(NO)C1(S(=O)(=O)c2ccc(OCCCOCc3cc(C(F)(F)F)cc(C(F)(F)F)c3)cc2)CCOCC1 [Example 454] | – |
| > 10000 nM | > 10000 nM | > 10 µM | CN(CCCC(=O)O)c1ccc(S(=O)(=O)C2(C(=O)NO)CCOCC2)cc1 [Example 457] | – |
| 3500 nM | 1400 nM | > 10 µM | COC(=O)CCCN(C)c1ccc(S(=O)(=O)C2(C(=O)NO)CCOCC2)cc1 [Example 458] | – |
| 700 nM | 670 nM | > 10 µM | CCCCCN(C)c1ccc(S(=O)(=O)C2(C(=O)NO)CCOCC2)cc1 [Example 459] | – |
| 2200 nM | 590 nM | > 10 µM | CC(C)OCCCNc1ccc(S(=O)(=O)C2(C(=O)NO)CCOCC2)cc1 [Example 461] | – |
| 2500 nM | 1500 nM | > 10 µM | CC(C)(CCc1ccccc1)Oc1ccc(S(=O)(=O)C2(C(=O)NO)CCOCC2)cc1 [Example 468] | – |
| 145 nM | 60 nM | > 10 µM | CC(CCOc1ccc(S(=O)(=O)C2(C(=O)NO)CCOCC2)cc1)CC(C)(C)C (centres unmarked) [Example 469] | – |
